Test results published in patent publication US9581587B2, “Sperm staining and sorting methods” (INGURAN, LLC, priority 2011, dated 2017).

Experiments:
sperm [1] = assay: Split quality, phenol red as added split enhancing dye (Example 8); assay type: cell-based, bulls (Jersey, Holstein)
Protocol: Two bulls were collected for the Example 8. The Bull 1 was a Jersey bulls and Bull 2 was a Holstein collected substantially in the manner described in example 1. Sperm from Bull 1 extended to 160 million per with a first buffer, (TALP described in table 1 at a pH 7.4) and divided into two groups for staining. The first group was stained with 44 μM Hoechst 33342 and the second group was stained with 60 μM Hoechst 33342. Similarly, bull 2 was suspended to 160 million per mL the first buffer, (TALP described in table 1 at a pH 7.4) and divided into three groups for staining. The first group was stained with 28 μM Hoechst 33342 and the second group was stained with 44 μM Hoechst 33342 and the third group was stained with 66 μM Hoechst 33342. Each group was incubated for 1 hour at 34° C. and then extended in an equal volume of the second buffer. […] The stained samples were each treated with a variety of quenching dyes and combinations of quenching dyes indicated in below. […] After calibration, screen shots of sorting histograms were taken and histograms split quality was measured as a peak to valley ratio in the same way described in Example 5 with reference to FIG. 4 and the resulting data is found in Table 16.

sperm [2] = assay: Split quality, split enhancing dyes at various concentrations and incubation times (Example 10); assay type: cell-based, bulls; conditions: 15, 45, 125 μM; 30-75 minutes; averaged over 8 bulls
Protocol: Eight bulls were collected, including 4 Jersey bulls, 3 Holstein bulls and one mixed dairy-breed. The ejaculates were collected at concentrations ranging from 1700×10^6 sperm/ml to 1100×10^6 sperm/ml and all had progressive motility of a least 60%.
Sperm from each bull was extended to 160 million per ml with a first buffer, (TALP described in table 1 at a pH 7.4) and stained with 64 μM (164/2 mL) Hoechst 33342 at 34° C. Additionally, Phenol Red, Red Food Dye No. 2, Red Food Dye No. 3, and Red Food Dye No. 4, were each tested as split enhancing dyes in the first buffer at concentrations of 15 μM, 45 μM and 125 μM. For each bull, each concentration of each dye was incubated for periods of 30 minutes, 45 minutes, 60 minutes, and 75 minutes were utilized before a second buffer with an additional dye was applied.
Each sample was then extended in an equal volume of a second buffer which comprised a 5.5 pH modified TALP having 25 μM yellow food dye No. 6 (acting as a dead quenching dye) in addition to the split enhancing dye provided in the first buffer. The second buffer was applied to every sample at 30 minutes, 45 minutes, 60 minutes, and 75 minutes. A control was additionally taken without any split enhancing dye for every bull at every time interval.
Sorting was performed on a MoFlo SX (Beckman Coulter, USA) in substantially the same manner described in Example 5. After calibration, screen shots of sorting histograms were taken and split quality was measured by peak to valley ratios in the same way described in Example 5 with reference to FIG. 4 and the resulting data, averaged over all 8 bulls, is found in Tables 18-21. Additionally, screen shots of bivariate plots were taken to measure the added dead quenching capacity of the mixed dead quenching and split enhancing dyes.

[3] = test system: membrane compromised sperm; assay: Dead gate intensity, yellow 5 and phenol red at higher concentrations (Example 6); assay type: cell-based, Jersey bull; conditions: Hoechst 12 μL/2 mL
sperm [4] = assay: Post thaw motility Elk (Example 3); assay type: cell-based; conditions: post thaw 0 HR; RED TALP with 16 μL Hoechst 33342, Y6 with 14 μL
Protocol: (§1) Each of deer and elk were collected in the Tris-egg yolk catch fluid described as a catch media in Example 1, and shipped for sorting.
(§2) A portion of each of the deer and the elk were stained by the red food dye No. 40 treatment 40% with 16 μL Hoechst 33342 and the yellow food dye No. 6 treatment with 14 μL Hoechst 33342 as described in Example 1.
(§3) Samples were each bulk sorted with the same machine and parameters described in Example 1. Both sorted X and sorted Y sperm were collected into a single catch. The sorted samples were then frozen like those described in Example 1.
(§4) Frozen thawed samples were then tested for post thaw motilities and post thaw DNA fragmentation. Post thaw motilities were slightly higher in Elk sorted with a yellow quencher, while a more significant difference existed in progressive motility. In Table 10, post thaw DNA fragmentation in Elk can be seen at about double after 48 hours when red food dye No. 40 is compared to yellow food dye No. 6 as a dead quencher.

sperm [5] = assay: Post thaw motility Deer (Example 3); assay type: cell-based; conditions: post thaw 0 HR; RED TALP with 16 μL Hoechst 33342, Y6 with 14 μL
Protocol: as §1, §2, §3, §4

[6] = test system: membrane compromised sperm; assay: Bivariate plots comparing dead quenching dyes (FIG. 3); assay type: cell-based; conditions: three bulls, equal amounts of Hoechst 33342 and of dye
From the text: FIG. 3 illustrates comparisons of bivariate plots generated in sex sorting sperm which reflect the intensity of the excited DNA selective fluorescent dye during sorting. Three bulls were stained with equal amounts of Hoechst 33342 and with an equal amount of yellow food dye No. 6 and red food dye No. 40. The region labeled as R4 surrounds what is considered the “dead” sperm population, while the region R1 is centered on viable, oriented sperm. It can be seen that for each bull yellow food dye no.

Row | SMILES | effect of adding phenol red on split quality (sperm [1]; each Hoechst staining level, with Red 40 or Yellow 6) | split enhancing effect compared to control (sperm [2]) | Intensity ([3]; dye 125 μM, pH 7.40) | Intensity ([3]; dye 250 μM, pH 7.40) | Intensity ([3]; dye 500 μM, pH 7.40) | Intensity ([3]; dye 750 μM, pH 7.40) | Intensity ([3]; dye 875 μM, pH 7.40) | Intensity ([3]; dye 1250 μM, second buffer pH 7.40) | Motile (sperm [4]) | Progressive (sperm [4]) | Progressive (sperm [5]) | Motile (sperm [5]) | PV (sperm [1]; Bull 1, Hoechst 33342 44 μM, R40 0, Y6 50 μM, PR 0) | quenching of the dead population compared to red food dye No. 40 [6]
1 | O=S1(=O)OC(c2ccc(O)cc2)(c2ccc(O)cc2)c2ccccc21 [Phenol Red, phenolsulfonphthalein] | always improved split quality | provided consistent split improvements at all concentrations after 30 minutes | 85% | 76% | 66% | 56% | 47% | 43% | – | – | – | – | – | –
2 | COc1cc(S(=O)(=O)O)c(C)cc1N=Nc1c(O)ccc2cc(S(=O)(=O)O)ccc12 [Red 40, 6-hydroxy-5-[(2-methoxy-5-methyl-4-sulfophenyl)azo]-2-naphthalenesulfonic acid, reference compound] | – | – | – | – | – | – | – | – | 51.0 | 29.0 | 43.0 | – | – | –
3 | O=S(=O)([O-])c1ccc(N=Nc2c(O)ccc3cc(S(=O)(=O)[O-])ccc23)cc1.[Na+].[Na+] [Yellow 6, Disodium 6-hydroxy-5[(4-sulfophenyl)azo]-2-naphthalenesulfononate] | – | – | – | – | – | – | – | – | 55.5 | 38.0 | 53.2 | 67.5 | 1.20 | superior quenching
